# From patent publication EP4635490A1, “PM20D1-DERIVED N-OLEOYL-L-LEUCINE FOR THE TREATMENT AND PREVENTION OF NEURODEGENERATIVE DISEASES” (Consejo Superior De Investigaciones Científicas, priority 2024, dated 2025)
# Key:
# [1] = tested on: APP/PS1-derived hippocampal neuronal cultures; experiment: ELISA of Aβ production in primary hippocampal neuronal cultures; assay type: cell-based, mice; conditions: 200nM C18:1-Leu, 24h vs vehicle; n=5, p=0.0093
# Procedure: (§1) • Fig. 1. C18:1-Leu treatment in neuronal cultures. a, Enzyme-linked immunosorbent assays (ELISA) of APP/PS1-derived hippocampal neuronal cultures treated during 24h with 200nM C18:1-Leu. n=5 per group, p=0.0093; one-sided Student's t-test. b, Lactate dehydrogenase (LDH) release viability assay of APP/PS1-derived hippocampal neuronal cultures treated during 16h with 150µM H2O2 and 200nM C18:1-Leu. ROS, reactive oxygen species. n=10 per group, p=0.0048; one-sided Student's t-test. b, AlamarBlue cell viability assay of SH-SY5Y cells treated during 24h with 10µM thapsigargin and 200nM C18:1 -Leu. UPS, unfolded-protein stress. n=5 per group, p=0.0084; one-sided Student's t-test. Single values (experiments) are represented by dots. *p<0.05, and **p<0.01. • Fig. 2. […] AD pathologies and phenotypes in APP/PS1 mice. a, Methoxy-X04 (MX04) IHC amyloid burden (area) quantification. n=8 per group, p=0.0283; one-sided Student's t-test. b, Novel object recognition (NOR) performance of vehicle and C18:1-Leu treated APP/PS1 mice. […]
# [2] = tested on: APP/PS1-derived hippocampal neuronal cultures; experiment: LDH release viability assay under H2O2 (ROS) stress; assay type: cell-based, mice; conditions: 200nM C18:1-Leu, 16h with 150µM H2O2 (Fig. 1b legend); n=10, p=0.0048
# Procedure: as §1
# SH-SY5Y cells = experiment: AlamarBlue cell viability assay under thapsigargin (unfolded-protein stress); assay type: cell-based, human; conditions: 200nM C18:1-Leu, 24h with 10µM thapsigargin; n=5, p=0.0084
# Procedure: as §1
# GMC101 worms [3] = experiment: Mobility phenotyping of GMC101 worms (AD model); assay type: in vivo, C. elegans; conditions: 200 µM C18:1-Leu, first 3 days of adulthood, vs vehicle
# Procedure: as §1
# GMC101 worms [4] = experiment: Amyloid aggregation in GMC101 worms (western blot); assay type: in vivo, C. elegans; conditions: 200 µM C18:1-Leu, GMC101 worms at day 1, vs vehicle; p=0.0108
# Procedure: as §1
# APP/PS1 mice [5] = experiment: Immunohistochemistry of brain sections of treated APP/PS1 mice (amyloid plaques, microglia, neuronal damage); assay type: in vivo
# Procedure: • Fig. 1. C18:1-Leu treatment in neuronal cultures. a, Enzyme-linked immunosorbent assays (ELISA) of APP/PS1-derived hippocampal neuronal cultures treated during 24h with 200nM C18:1-Leu. n=5 per group, p=0.0093; one-sided Student's t-test. b, Lactate dehydrogenase (LDH) release viability assay of APP/PS1-derived hippocampal neuronal cultures treated during 16h with 150µM H2O2 and 200nM C18:1-Leu. ROS, reactive oxygen species. n=10 per group, p=0.0048; one-sided Student's t-test. b, AlamarBlue cell viability assay of SH-SY5Y cells treated during 24h with 10µM thapsigargin and 200nM C18:1 -Leu. UPS, unfolded-protein stress. n=5 per group, p=0.0084; one-sided Student's t-test. Single values (experiments) are represented by dots. *p<0.05, and **p<0.01. • Fig. 2. AD pathologies and phenotypes in GMC101 worms. a, Mobility assessment in vehicle and C18:1-Leu treated GMC101 worms during the 3 first days of adulthood. a.u., arbitrary units. n=75-100 worms per time, p=0.0001 and p=0.0152 for day 2 and 3, respectively; one-sided Student's t-test. b, Pumping per minute in vehicle and C18:1-Leu treated GMC101 worms at day 3. n=7 per group, p=0.0162; one-sided t-test. c, Relative amyloid aggregation in vehicle and C18:1-Leu treated GMC101 worms at day 1. n=6 experiments of -1000 worms each, pval=0.0108; one-sided Student's t-test. Single values (animals) are represented by dots. *p<0.05, and ***p<0.001. • Fig. 3. AD pathologies and phenotypes in APP/PS1 mice. a, Methoxy-X04 (MX04) IHC amyloid burden (area) quantification. n=8 per group, p=0.0283; one-sided Student's t-test. b, Novel object recognition (NOR) performance of vehicle and C18:1-Leu treated APP/PS1 mice. C18:1-Leu was provided from 15 to 18 months (m) of age. n=11-15 per group, p=0.0312. Single values (animals) are represented by dots. *p<0.05, **p<0.01, and ***p<0.001. • Fig. 4. Microglia analysis in C18:1-Leu treated APP/PS1 mice. a, Quantification of Ionized calcium-binding adaptor molecule 1 (IBA1, microglia) area within methoxy-X04 (MX04, amyloid plaques) region of interest (ROI). n=6-7 per group, p=0.0051; one-sided Student's t-test. b, Amyloid plaque number quantification. n=8 per group, p=0.0444; one-sided Student's t-test. c, Percentage of amyloid halo (diffuse, toxic) area over plaque dense core. n=8 per group, p=0.0389; one-sided Student's t-test. d, Percentage of the Lysosome-associated protein 1 (LAMP1, neuronal damage) area over to plaque dense core. n=8-9 per group, p=0.0132; one-sided Student's t-test. Single values (animals) are represented by dots. *p<0.05, and **p<0.01. • Fig. 5. C18:1-Leu treatment in microglia cultures. a, Transwell assay of APP/PS1-derived primary microglia treated during 24h with 200nM C18:1-Leu. n=6 per group, p=0.0007; one-sided Student's t-test. b, Amyloid-beta 40 (Aβ40) ELISA assays of APP/PS1-derived primary microglia cultures after 24h of 200nM C18:1-Leu treatment in presence of amyloid-beta (Aβ). n=5 per group, p=0.0201; one-sided Student's t-test. Single values (experiments) are represented by dots. *p<0.05, **p<0.01, and ***p<0.001. • Fig. 6. RNA expression signatures in human samples I. C18:1-Leu score according to PM20D1 haplotype in Alzheimer's disease (AD) and control postmortem brain samples. a, n=387 control and n=511 AD samples, Wilcoxon test, ****p<0.0001 • Fig. 7. RNA expression signatures in human samples II. Correlation between PIG and C18:1-Leu scores in AD samples. n=511 AD samples, Spearman correlation. • Fig. 8. […]
# APP/PS1 mice [6] = experiment: Novel object recognition test in APP/PS1 mice; assay type: in vivo; conditions: 25 mg/kg/day p.o. during three months, starting at 15 months-of-age; n=11-15, p=0.0312
# Procedure: as §1
# [7] = tested on: APP/PS1-derived primary microglia; experiment: Transwell migration assay (Aβ chemotaxis) of primary microglia; assay type: cell-based, mice; conditions: 200nM C18:1-Leu, 24h, conditioned Aβ media in lower chamber; n=6, p=0.0007
# Procedure: as §1
# [8] = tested on: APP/PS1-derived primary microglia; experiment: Aβ clearance by primary microglia, Amyloid beta 40 ELISA; assay type: cell-based, mice; conditions: 200nM C18:1-Leu, 24h in presence of Aβ; n=5, p=0.0201
# Procedure: as §1
structure (smiles),measurement,setting,value
"CCCCCCCC/C=C\CCCCCCCC(=O)N[C@@H](CC(C)C)C(=O)O [C18:1-Leu, N-oleoyl-L-Leucine]",Aβ production,[1],reduces Aβ production in neuronal cells
same,"neuroprotection against ROS (cell viability, LDH release)",[2],increases neuroprotection against ROS
same,"neuroprotection against UPS stress (cell viability, AlamarBlue)",SH-SY5Y cells,increases neuroprotection
same,AD-like phenotypes - spontaneous and induced mobility,GMC101 worms [3],significantly improves
same,amyloid pathologies (relative amyloid aggregation),GMC101 worms [4],significantly improves
same,amyloid burden (Methoxy-X04 IHC area),"APP/PS1 mice [5]; 25 mg/kg/day p.o. during three months, starting at 15 months-of-age, n=8, p=0.0283",improves amyloid burden
same,microglia association with amyloid plaques (relative MX04 area occupied by IBA1),"APP/PS1 mice [5]; C18:1-Leu treated APP/PS1 mice vs vehicle, n=6-7, p=0.0051",increased microglia association
same,relative size of the diffuse halo of the plaques,"APP/PS1 mice [5]; C18:1-Leu treated APP/PS1 mice vs vehicle, n=8, p=0.0389",reduced
same,number of amyloid plaques,"APP/PS1 mice [5]; C18:1-Leu treated APP/PS1 mice vs vehicle, n=8, p=0.0444",reduced
same,LAMP1 area (neuronal damage) over plaque dense core,"APP/PS1 mice [5]; C18:1-Leu treated APP/PS1 mice vs vehicle, n=8-9, p=0.0132",stronger LAMP1 area reduction
same,cognitive deficits (novel object recognition test),APP/PS1 mice [6],improves
same,Aβ chemotaxis (migrated microglia),[7],increased Aβ chemotaxis
same,Aβ clearance (remaining Aβ40 in media),[8],increases Aβ clearance
